Each structure is given as a SMILES string. Where “and” joins values, the source holds several entries; their conditions need not be identical. Equal entries are not always repeated.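 Protocol summary: plate cells (96-well), add compound at 5 concentrations, incubate 48 h, interpolate endpoints linearly. The concentration for 50% growth inhibition is given as GI50. TGI: total growth inhibition.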

GI50 and TGI data for 15 molecules are collected here from PubChem BioAssay (NCI).

Holding throughout (test): growth of human tumour cells (NCI), 48 h
In test [1] the test system is SF-539 CNS.
For test [2], the system named is SK-MEL-2 melanoma.
In test [3] the test system is MDA-MB-435.
For test [4], the system named is HCC-2998 colon.
For test [5], the system named is LOX IMVI melanoma.
The test system of test [6] is HS 578T breast.
For test [7], the system named is OVCAR-3 ovarian.
Test [8] has as its system CCRF-CEM leukemia.

`Cc1cc(N(CCCNc2ccnc3cc(Cl)ccc23)Cc2ccc3c(c2)OCO3)nc(N2CCOCC2)n1`: the GI50 was 0.251 µM in test [1]; 0.207 µM in test [2]; 0.37 µM in test [3]; 0.329 µM in test [4]; 0.216 µM in test [5]; 0.288 µM in test [6]. Moreover, the figures for the GI50 in test [7] and in test [8] were 0.359 µM and 0.38 µM, respectively. Moreover, the TGI came out at 0.66 µM in test [1]; 0.457 µM in test [2]; 1.78 µM in test [3]; 13.1 µM in test [4]; 0.534 µM in test [5]; 18.6 µM in test [6]. Also, the results for the TGI in test [7] and in test [8] were 1.92 µM and over 100 µM, respectively.
For `CC(C)OC(=O)[C@H](C)NP(=O)(OC[C@H]1O[C@@H](n2ccc(=O)[nH]c2=O)[C@](C)(F)[C@@H]1O)Oc1ccccc1` (stereo not given in full), the GI50 in test [1], in test [2], in test [3], in test [4], in test [5] and in test [6] was over 100 µM each time. Besides, the GI50 in test [7] and in test [8] was over 100 µM throughout. Further, the TGI in test [1], in test [2], in test [3], in test [4], in test [5] and in test [6] was over 100 µM each time. In addition, the TGI in test [7] and in test [8] was over 100 µM throughout.
Turning to `COc1ccc(C2=C(c3ccc(OC)cc3)C(=O)N3CCCC3C2)cc1` (stereo not given), the GI50 in test [1] was 7.95 µM; in test [2], 18.3 µM; in test [3], 12.3 µM; in test [4] it was 26.4 µM; in test [5], 3.87 µM; in test [6], 69.5 µM. Also, the figures for the GI50 in test [7] and in test [8] were 11.7 µM and 5.49 µM, respectively. Also, the TGI in test [1] is 77.1 µM; in test [2], over 100 µM; in test [3], over 100 µM; in test [4], 93.4 µM; in test [5], 25.6 µM; in test [6], over 100 µM. In addition, the TGI in test [7] is over 100 µM; in test [8], over 48.2 µM.
Take `O=C1c2cc3c(cc2-c2c1c1cc(Cl)c(Cl)cc1c(=O)n2C[C@H](O)CO)OCO3`: the GI50 was under 0.01 µM in test [1]; 0.0488 µM in test [2]; 0.0111 µM in test [3]; 0.0451 µM in test [4]; under 0.01 µM in test [5]; 0.291 µM in test [6]. The GI50 is 0.0157 µM in test [7] and under 0.01 µM in test [8]. Further, the TGI in test [1] is 0.0175 µM; in test [2], 0.374 µM; in test [3], 0.168 µM; in test [4], 3.29 µM; in test [5] it was 0.0117 µM; in test [6] it was 32.9 µM. Also, the values for the TGI in test [7] and in test [8] were 0.0769 µM and 19.1 µM, respectively.
For `CN(C)c1ncnc2c1ncn2CCn1cnc2c(N(C)C)ncnc21`, the TGI in test [1], in test [2], in test [3], in test [4], in test [5] and in test [6] was over 100 µM throughout. Further, the TGI in test [7] and in test [8] was over 100 µM throughout.
In the case of `COc1ccc(-c2nsc3c2NC(=O)CC3c2cccc(OC)c2)cc1` (stereo not given), the GI50 is 1.87 µM in test [1]; 3.81 µM in test [2]; 0.282 µM in test [3]; 2.13 µM in test [4]; 0.689 µM in test [5]; 1.34 µM in test [6]. Also, the GI50 in test [7] was 0.705 µM; in test [8], 2.08 µM. The TGI in test [1] was 6.7 µM; in test [2] it was 64.1 µM; in test [3], 0.868 µM; in test [4] it was over 100 µM; in test [5], over 100 µM; in test [6], 16.9 µM. Moreover, the TGI is 4.41 µM in test [7] and over 100 µM in test [8].
Take `O=C1CCC/C=C\C[C@H]2C=CC(=O)/C2=C/C[C@H](C/C=C\CC(F)(F)F)O1`: the GI50 in test [1] is 0.676 µM; in test [2], 0.365 µM; in test [3], 0.449 µM; in test [4] it was 0.384 µM; in test [5], 0.288 µM; in test [6], 1.17 µM. The values for the GI50 in test [7] and in test [8] were 0.538 µM and 0.465 µM, respectively. Besides, the TGI in test [1] amounted to 3.08 µM; in test [2] it was 1.19 µM; in test [3], 1.42 µM; in test [4] it was 0.733 µM; in test [5], 0.591 µM; in test [6], 9.68 µM. In addition, the values for the TGI in test [7] and in test [8] were 1.75 µM and 1.71 µM, respectively.
On to `O=[P@@]1(c2ccccc2)O[C@H](COCc2ccccc2)[C@@H](OCc2ccccc2)[C@H](OCc2ccccc2)[C@H]1NCc1ccccc1`, for which the GI50 in test [1] is 4.74 µM; in test [2], 3.73 µM; in test [3], 2.92 µM; in test [4] it was 4.26 µM; in test [5], 3.25 µM; in test [6] it was 3.43 µM. Also, the GI50 in test [7] is 3.17 µM; in test [8], 3.23 µM. Besides, the TGI in test [1] is over 100 µM; in test [2], over 100 µM; in test [3] it was over 100 µM; in test [4], over 100 µM; in test [5], 18.6 µM; in test [6], over 100 µM. Moreover, the TGI is 19.3 µM in test [7] and over 100 µM in test [8].
For the molecule `COc1ccccc1Nc1ncc(-c2ccccc2)o1`, the GI50 in test [1] was over 25 µM; in test [2], over 25 µM; in test [3] it was over 25 µM; in test [4], over 25 µM; in test [5], over 25 µM; in test [6] it was over 5.12 µM. The GI50 in test [7] and in test [8] was over 25 µM in each case. For the same molecule, the TGI in test [1], in test [2], in test [3], in test [4], in test [5] and in test [6] was over 25 µM in each case. Also, the TGI in test [7] and in test [8] was over 25 µM throughout.
Regarding `COc1cc(/C=C/C(=O)c2cccc(-n3cc(-c4ccc(Cl)cc4)[nH]c3=O)c2)ccc1O`, the GI50 in test [1] was 1.86 µM; in test [2] it was 3.61 µM; in test [3], 2.75 µM; in test [4] it was 2.35 µM; in test [5] it was 1.64 µM; in test [6], 3.78 µM. Further, the GI50 is 1.56 µM in test [7] and 0.706 µM in test [8]. The TGI is 4.05 µM in test [1]; 14.4 µM in test [2]; over 47.5 µM in test [3]; 5.5 µM in test [4]; 4.03 µM in test [5]; 26.9 µM in test [6]. Moreover, the TGI was determined as 3.57 µM in test [7] and 4.42 µM in test [8].
With `O=C(CNS(=O)(=O)Cc1ccccc1)NNc1ccccc1`, the TGI is over 25.6 µM in test [1]; over 100 µM in test [2]; over 100 µM in test [3]; over 100 µM in test [4]; over 100 µM in test [5]; over 100 µM in test [6]. The TGI in test [7] and in test [8] was over 100 µM throughout.
In the case of `COc1ccc(/C(=C\C=C(C#N)C#N)Sc2nc3ccccc3s2)cc1`, the GI50 in test [1] was 1.19 µM; in test [2], 34.1 µM; in test [3], 8.34 µM; in test [4] it was 9.02 µM; in test [6], 31.2 µM; in test [7] it was 8.26 µM. Also, the TGI in test [1] was 2.59 µM; in test [2] it was over 50 µM; in test [3], 18.5 µM; in test [4], 16.9 µM; in test [6], over 50 µM; in test [7], 17.7 µM.
Regarding `CC1(Br)Cc2ccccc2C1=O` (stereo not given), the TGI is 16.8 µM in test [1]; 24.2 µM in test [2]; 12.4 µM in test [3]; over 100 µM in test [4]; 2.41 µM in test [5]; 38.6 µM in test [6]. For the same molecule, the TGI in test [7] is 14.5 µM; in test [8], 6.75 µM and 1.82 µM. The GI50 in test [3] is 2.14 µM; in test [5], 0.533 µM; in test [7], 4.11 µM; in test [8] it was 0.318 µM.
Regarding `O=[N+]([O-])c1cccc2ccc(N/N=C/c3ccccc3O)nc12`, the GI50 in test [1] was over 100 µM; in test [2] it was over 100 µM; in test [3], over 100 µM; in test [4] it was over 100 µM; in test [5], over 100 µM; in test [6], 72.4 µM. In addition, in test [7], the GI50 is 4.48 µM. The TGI in test [1], in test [2], in test [3], in test [4], in test [5] and in test [6] was over 100 µM in each case. For the same molecule, the TGI in test [7] is over 100 µM.
For `O=C(/C=C/C=C/c1ccccc1)c1ccccc1`, the TGI in test [1] is 32.8 µM; in test [2] it was 45.5 µM; in test [3], 34.2 µM; in test [4] it was 31.7 µM; in test [5], 29.3 µM; in test [6], 55.4 µM. Moreover, the TGI in test [7] stood at 34.3 µM.
